Measurements reported in ChEMBL document CHEMBL3045374, “Selective herbicide activity of 2,5-di(benzylamine)-p-benzoquinone against the monocot weed Echinochloa crusgalli. An in vivo analysis of photosynthesis and growth” (2005).
Active and inactive are the calls of the source. The rule behind the calls is not given here.

Assays:
Physalis ixocarpa [1] = assay: Herbicidal activity against Physalis ixocarpa using youngest fully expanded leaf assessed as stomatal conductance at 40 uM at 25 to 28 degC measured after 120 hr (reference value: 184.6 +/- 36.6 mmol/m'2/s); type: functional
Echinochloa crus-galli [2] = assay: Herbicidal activity against Echinochloa crus-galli (barnyard grass) using youngest fully expanded leaf assessed as inhibition of CO2 assimilation at 40 uM at 25 to 28 degC measured after 24 hr; type: functional
Phaseolus vulgaris [3] = assay: Herbicidal activity against Phaseolus vulgaris using youngest fully expanded leaf assessed as inhibition of CO2 assimilation at 40 uM at 25 to 28 degC measured after 120 hr (reference value: 7.2 +/- 0.3 umol/m'2/s); type: functional
Zea mays [4] = assay: Herbicidal activity against Zea mays (maize) using youngest fully expanded leaf assessed as inhibition of CO2 assimilation at 40 uM at 25 to 28 degC measured after 120 hr (reference value: 8 +/- 0.4 umol/m'2/s); type: functional
Echinochloa crus-galli [5] = assay: Herbicidal activity against Echinochloa crus-galli (barnyard grass) assessed as electrolyte leakage at 40 uM measured after 5 days treatment (reference value: 100%); type: functional
Echinochloa crus-galli [6] = assay: Herbicidal activity against Echinochloa crus-galli (barnyard grass) using youngest fully expanded leaf assessed as inhibition of stomatal conductance at 40 uM at 25 to 28 degC measured after 1 hr; type: functional
Echinochloa crus-galli [7] = assay: Herbicidal activity against Echinochloa crus-galli (barnyard grass) assessed as chlorophyll loss at 40 uM measured after 5 days treatment (reference value: 0%); type: functional
[8] = biological target: Photosystem II reaction center protein M (Pennisetum americanum) (UniProt Q672I5); assay: Inhibition of PSII in Echinochloa crus-galli (barnyard grass) using leaf assessed as inhibition of electron transport at 40 uM measured after 7 to 14 days
Physalis ixocarpa [9] = assay: Herbicidal activity against Physalis ixocarpa assessed as reduction in dry biomass at 40 uM measured after 14 days treatment; type: functional, organism-based
Echinochloa crus-galli [10] = assay: Herbicidal activity against Echinochloa crus-galli (barnyard grass) using youngest fully expanded leaf assessed as stomatal conductance at 40 uM at 25 to 28 degC measured after 120 hr (reference value: 100.7 +/- 8.6 mmol/m'2/s); type: functional
Fabaceae = assay: Induction of chlorophyll a fluorescence curve in Fabaceae (bean) leaf relative to control; type: functional, organism-based
Zea mays [11] = assay: Herbicidal activity against Zea mays (maize) assessed as reduction in dry biomass at 40 uM measured after 14 days treatment; type: functional; details: 336 h
[12] = biological target: Photosystem II reaction center protein M (Pennisetum americanum) (UniProt Q672I5); assay: Inhibition of PSII in Echinochloa crus-galli (barnyard grass) using dark-adapted leaf assessed as photosynthetic electron transport at 40 uM measured after 1 hr by chlorophyll fluorescence induction curve assay
Echinochloa crus-galli [13] = assay: Herbicidal activity against Echinochloa crus-galli (barnyard grass) assessed as reduction in dry biomass at 40 uM measured after 14 days treatment; type: functional; details: 336 h
Zea mays [14] = assay: Induction of chlorophyll a fluorescence curve in Zea mays (maize) leaf relative to control; type: functional, organism-based
Zea mays [15] = assay: Herbicidal activity against Zea mays (maize) using youngest fully expanded leaf assessed as intracellular CO2 concentration at 40 uM at 25 to 28 degC measured after 120 hr (reference value: 196.1 +/- 4.9 uL/L); type: functional
Phaseolus vulgaris [16] = assay: Herbicidal activity against Phaseolus vulgaris using youngest fully expanded leaf assessed as inhibition of CO2 assimilation at 40 uM at 25 to 28 degC measured after 120 hr; type: functional, organism-based
Echinochloa crus-galli [17] = assay: Herbicidal activity against Echinochloa crus-galli (barnyard grass) using youngest fully expanded leaf assessed as inhibition of CO2 assimilation at 40 uM at 25 to 28 degC measured after 120 hr (reference value: 10.7 +/- 1.1 umol/m'2/s); type: functional
[18] = biological target: T1, Photosystem I iron-sulfur center (Panicum virgatum) (UniProt G3EFH9); assay: Inhibition of PSI in Echinochloa crus-galli (barnyard grass) assessed as 50% compound concentration required to accept electrons
T1 sequence (whole entry): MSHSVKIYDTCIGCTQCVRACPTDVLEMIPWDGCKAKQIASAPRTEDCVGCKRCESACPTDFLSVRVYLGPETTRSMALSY

Echinochloa crus-galli [19] = assay: Herbicidal activity against Echinochloa crus-galli (barnyard grass) using youngest fully expanded leaf assessed as inhibition of stomatal conductance at 40 uM at 25 to 28 degC measured after 20 hr; type: functional
Echinochloa crus-galli [20] = assay: Herbicidal activity against Echinochloa crus-galli (barnyard grass) using youngest fully expanded leaf assessed as inhibition of CO2 assimilation at 40 uM at 25 to 28 degC measured after 1 hr; type: functional
Echinochloa crus-galli [21] = assay: Herbicidal activity against Echinochloa crus-galli (barnyard grass) using youngest fully expanded leaf assessed as intracellular CO2 concentration at 40 uM at 25 to 28 degC measured after 120 hr (reference value: 171.0 +/- 23.1 uL/L); type: functional
Zea mays [22] = assay: Herbicidal activity against Zea mays (maize) using youngest fully expanded leaf assessed as stomatal conductance at 40 uM at 25 to 28 degC measured after 120 hr (reference value: 103.9 +/- 6.5 mmol/m'2/s); type: functional
Phaseolus vulgaris [23] = assay: Herbicidal activity against Phaseolus vulgaris using youngest fully expanded leaf assessed as stomatal conductance at 40 uM at 25 to 28 degC measured after 120 hr (reference value: 161.8 +/- 10 mmol/m'2/s); type: functional
Solanum lycopersicum = assay: Induction of chlorophyll a fluorescence curve in green Solanum lycopersicum (tomato) leaf relative to control; type: functional, organism-based
Physalis ixocarpa [24] = assay: Herbicidal activity against Physalis ixocarpa using youngest fully expanded leaf assessed as inhibition of CO2 assimilation at 40 uM at 25 to 28 degC measured after 120 hr (reference value: 6.3 +/- 0.6 umol/m'2/s); type: functional
Phaseolus vulgaris [25] = assay: Herbicidal activity against Phaseolus vulgaris using youngest fully expanded leaf assessed as inhibition of stomatal conductance at 40 uM at 25 to 28 degC measured after 120 hr; type: functional, organism-based
[26] = biological target: T1, Photosystem I iron-sulfur center (Panicum virgatum); assay: Inhibition of PSI in Echinochloa crus-galli (barnyard grass) using dark-adapted leaf assessed as photosynthetic electron transport at 40 uM measured after 1 hr by chlorophyll fluorescence induction curve assay
Phaseolus vulgaris [27] = assay: Herbicidal activity against Phaseolus vulgaris assessed as reduction in dry biomass at 40 uM measured after 14 days treatment; type: functional, organism-based
Echinochloa crus-galli [28] = assay: Herbicidal activity against Echinochloa crus-galli (barnyard grass) using youngest fully expanded leaf assessed as inhibition of stomatal conductance at 40 uM at 25 to 28 degC measured after 120 hr; type: functional, organism-based
Physalis ixocarpa [29] = assay: Herbicidal activity against Physalis ixocarpa using youngest fully expanded leaf assessed as intracellular CO2 concentration at 40 uM at 25 to 28 degC measured after 120 hr (reference value: 254.0 +/- 8.6 uL/L); type: functional
Phaseolus vulgaris [30] = assay: Herbicidal activity against Phaseolus vulgaris using youngest fully expanded leaf assessed as intracellular CO2 concentration at 40 uM at 25 to 28 degC measured after 120 hr (reference value: 256.0 +/- 5.8 uL/L); type: functional
Echinochloa crus-galli [31] = assay: Herbicidal activity against Echinochloa crus-galli (barnyard grass) using youngest fully expanded leaf assessed as inhibition of CO2 assimilation at 40 uM at 25 to 28 degC measured after 5 days; type: functional, organism-based

O=C1C=C(NCc2ccccc2)C(=O)C=C1NCc1ccccc1
Activity (Physalis ixocarpa [1]): 151.2 mmol/m2/s | inhibition at 40 µM (Echinochloa crus-galli [2]): 84% | Activity (Phaseolus vulgaris [3]): 7 micromol/m2/s | Activity (Zea mays [4]): 7.2 micromol/m2/s | Activity (Echinochloa crus-galli [5]): 135.6% | inhibition at 40 µM (Echinochloa crus-galli [6]): 45% | Activity (Echinochloa crus-galli [7]): 3.5% | inhibition [8]: 44% | inhibition (Physalis ixocarpa [9]): inactive | Activity (Echinochloa crus-galli [10]): 75.3 mmol/m2/s | Activity (Fabaceae): inactive | inhibition at 40 µM (Zea mays [11]): 60% | inhibition [12]: inactive | inhibition at 40 µM (Echinochloa crus-galli [13]): 76.5% | Activity (Zea mays [14]): inactive | Activity (Zea mays [15]): 212 uL/L | inhibition (Phaseolus vulgaris [16]): inactive | Activity (Echinochloa crus-galli [17]): 4.2 micromol/m2/s | Activity [18]: 0.23 µM | inhibition at 40 µM (Echinochloa crus-galli [19]): 62% | inhibition at 40 µM (Echinochloa crus-galli [20]): 80% | Activity (Echinochloa crus-galli [21]): 221 uL/L | Activity (Zea mays [22]): 82.4 mmol/m2/s | Activity (Phaseolus vulgaris [23]): 150 mmol/m2/s | Activity (Solanum lycopersicum): inactive | Activity (Physalis ixocarpa [24]): 5.6 micromol/m2/s | inhibition (Phaseolus vulgaris [25]): inactive | inhibition [26]: Active | inhibition (Phaseolus vulgaris [27]): inactive | inhibition (Echinochloa crus-galli [28]): Active | Activity (Physalis ixocarpa [29]): 254.3 uL/L | Activity (Phaseolus vulgaris [30]): 254 uL/L

O=C1C=C(Nc2ccccc2)C(=O)C=C1Nc1ccccc1
inhibition at 40 µM (Echinochloa crus-galli [2]): 84% | inhibition at 40 µM (Echinochloa crus-galli [6]): 45% | inhibition (Phaseolus vulgaris [16]): inactive | inhibition at 40 µM (Echinochloa crus-galli [19]): 62% | inhibition at 40 µM (Echinochloa crus-galli [20]): 80% | inhibition (Phaseolus vulgaris [25]): inactive | inhibition (Echinochloa crus-galli [31]): Active

C[C@H](NC1=CC(=O)C(N[C@@H](C)[C@H](O)c2ccccc2)=CC1=O)[C@H](O)c1ccccc1
inhibition at 40 µM (Echinochloa crus-galli [2]): 84% | inhibition at 40 µM (Echinochloa crus-galli [6]): 45% | inhibition (Phaseolus vulgaris [16]): inactive | inhibition at 40 µM (Echinochloa crus-galli [19]): 62% | inhibition at 40 µM (Echinochloa crus-galli [20]): 80% | inhibition (Phaseolus vulgaris [25]): inactive

CC(NC1=CC(=O)C(NC(C)c2ccccc2)=CC1=O)c1ccccc1 (configuration not stated)
inhibition at 40 µM (Echinochloa crus-galli [2]): 84% | inhibition at 40 µM (Echinochloa crus-galli [6]): 45% | inhibition (Phaseolus vulgaris [16]): inactive | inhibition at 40 µM (Echinochloa crus-galli [19]): 62% | inhibition at 40 µM (Echinochloa crus-galli [20]): 80% | inhibition (Phaseolus vulgaris [25]): inactive

C[n+]1ccc(-c2cc[n+](C)cc2)cc1 [PARAQUAT]
Activity (Echinochloa crus-galli [5]): 438.59% | Activity (Echinochloa crus-galli [7]): 44.3% | Activity [18]: 110 µM

O=C1C=C(Nc2ccccc2O)C(=O)C=C1Nc1ccccc1O
inhibition at 40 µM (Echinochloa crus-galli [2]): 84% | inhibition at 40 µM (Echinochloa crus-galli [6]): 45% | inhibition (Phaseolus vulgaris [16]): inactive | inhibition at 40 µM (Echinochloa crus-galli [19]): 62% | inhibition at 40 µM (Echinochloa crus-galli [20]): 80% | inhibition (Phaseolus vulgaris [25]): inactive | inhibition (Echinochloa crus-galli [31]): Active

COc1ccccc1NC1=CC(=O)C(Nc2ccccc2OC)=CC1=O
inhibition at 40 µM (Echinochloa crus-galli [2]): 84% | inhibition at 40 µM (Echinochloa crus-galli [6]): 45% | inhibition (Phaseolus vulgaris [16]): inactive | inhibition at 40 µM (Echinochloa crus-galli [19]): 62% | inhibition at 40 µM (Echinochloa crus-galli [20]): 80% | inhibition (Phaseolus vulgaris [25]): inactive
